Legend:
[1] = target: Dual specificity mitogen-activated protein kinase kinase; MEK1/2 (Homo sapiens, UniProt P36507+Q02750); experiment: Ability to antagonise AP-1 transcriptional activity; format: functional
[2] = target: T1, Dual specificity mitogen-activated protein kinase kinase 1 (Homo sapiens, UniProt Q02750)
[3] = target: T1, Dual specificity mitogen-activated protein kinase kinase 1; experiment: Non-competitive inhibition of the dual specificity kinase MEK at the concentration 10 uM
[4] = target: T1, Dual specificity mitogen-activated protein kinase kinase 1; experiment: Inhibition of the dual specificity kinase MEK-1 (Inactive)

T1 sequence (Q02750 whole entry): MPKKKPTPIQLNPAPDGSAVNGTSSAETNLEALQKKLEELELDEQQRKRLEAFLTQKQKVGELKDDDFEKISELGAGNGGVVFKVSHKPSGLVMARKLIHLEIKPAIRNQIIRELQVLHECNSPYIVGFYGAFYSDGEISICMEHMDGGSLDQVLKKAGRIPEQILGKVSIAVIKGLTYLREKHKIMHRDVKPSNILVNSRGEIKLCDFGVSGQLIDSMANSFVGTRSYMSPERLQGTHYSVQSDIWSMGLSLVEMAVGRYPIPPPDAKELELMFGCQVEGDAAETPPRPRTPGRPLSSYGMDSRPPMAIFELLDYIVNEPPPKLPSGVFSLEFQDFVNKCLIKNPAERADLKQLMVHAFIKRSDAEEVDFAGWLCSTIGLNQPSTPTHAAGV

SMILES | IC50 [1] | IC50 [2] | inhibition [3] | IC50 [4]
N#CC(=C(/N)Sc1ccccc1O)/C(C#N)=C(\N)Sc1ccccc1O | 0.4 µM | 0.3 µM | – | –
N#CC(=C(/N)Sc1cccs1)/C(C#N)=C(\N)Sc1cccs1 | 1.2 µM | 0.3 µM | – | –
N#CC(=C(/N)Sc1ccc2ccccc2c1N)/C(C#N)=C(\N)Sc1ccc2ccccc2c1N | – | 2.1 µM | – | –
N#CC(=C(/N)Sc1ccccc1-c1ccccc1)/C(C#N)=C(\N)Sc1ccccc1-c1ccccc1 | – | – | 8.7% | –
CS/C(N)=C(C#N)/C(C#N)=C(\N)SC | – | – | 24% | –
N#CC(=C(/N)Sc1ccccc1N)/C(C#N)=C1\Nc2ccccc2S1 | 18.7 µM | 3.2 µM | – | –
N#CC(=C(/N)SCCO)/C(C#N)=C(\N)SCCO | – | – | 0% | –
N#CC(=C(/N)Sc1ccc(-c2ccccc2)cc1)/C(C#N)=C(\N)Sc1ccc(-c2ccccc2)cc1 | – | – | 34% | –
N#CC(=C(/N)Sc1ccccc1Cl)/C(C#N)=C(\N)Sc1ccccc1Cl | 6.6 µM | 0.9 µM | – | –
N#CC(=C1/Nc2ccccc2S1)/C(C#N)=C1\Nc2ccccc2S1 | 42.5 µM | 0.7 µM | – | –
N#CC(=C(/N)Sc1cccc(C(F)(F)F)c1)/C(C#N)=C(\N)Sc1cccc(C(F)(F)F)c1 | – | – | 32% | –
N#CC(=C(/N)Sc1c(Cl)cccc1Cl)/C(C#N)=C(\N)Sc1c(Cl)cccc1Cl | 6.5 µM | 2.8 µM | – | –
N#CC(=C(/N)Sc1ccc(C(F)(F)F)cc1)/C(C#N)=C(\N)Sc1ccc(C(F)(F)F)cc1 | – | – | 33% | –
N#CC(=C(/N)Sc1cc(I)ccc1N)/C(C#N)=C(\N)Sc1cc(I)ccc1N | – | – | 34.8% | –
N#Cc1c(C#N)c2sc3ccccc3n2c1Sc1ccccc1N | – | – | – | Not Active
N#CC(=C(/N)Sc1ccccc1[N+](=O)[O-])/C(C#N)=C(\N)Sc1ccccc1[N+](=O)[O-] | – | – | 41% | –
CC(=O)Nc1ccccc1Sc1c(C#N)c(C#N)c2sc3ccccc3n12 | – | – | – | Not Active
COc1ccccc1S/C(N)=C(C#N)/C(C#N)=C(\N)Sc1ccccc1OC | 16.5 µM | 4.5 µM | – | –
N#CC(=C(/N)Sc1ccccc1F)/C(C#N)=C(\N)Sc1ccccc1F | 7.6 µM | 0.9 µM | – | –
N#Cc1c(N)[nH]c(Sc2ccccc2N)c1C#N | 26.2 µM | 13.5 µM | – | –

SMILES | IC50 [1] | IC50 [2] | inhibition [3] | IC50 [4]
CNc1ccccc1S/C(N)=C(C#N)/C(C#N)=C(\N)Sc1ccccc1NC | – | – | 19.1% | –
N#CC(=C(/N)Sc1ccc2ccccc2c1)/C(C#N)=C(\N)Sc1ccc2ccccc2c1 | – | – | 54% | –
N#CC(=C(/N)Sc1cccc2ccccc12)/C(C#N)=C(\N)Sc1cccc2ccccc12 | – | – | 26% | –
N#CC(=C(/N)Sc1ccccc1CO)/C(C#N)=C(\N)Sc1ccccc1CO | – | – | 51% | –
COc1ccc(OC)c(S/C(N)=C(C#N)/C(C#N)=C(\N)Sc2cc(OC)ccc2OC)c1 | – | – | 18% | –
N#Cc1c(Sc2ccc3ccccc3c2)[nH]c(Sc2ccc3ccccc3c2)c1C#N | 28.9 µM | 2.1 µM | – | –
N#CC(=C(/N)Sc1ccc(Cl)cc1)/C(C#N)=C(\N)Sc1ccc(Cl)cc1 | 21.7 µM | 2.1 µM | – | –
N#Cc1c(NS(=O)(=O)c2ccccc2)[nH]c(Sc2ccc3ccccc3c2)c1C#N | 8 µM | 1.9 µM | – | –
N#CC(=C(/N)Sc1ccccc1)/C(C#N)=C(\N)Sc1ccccc1 | 12.2 µM | 0.9 µM | – | –
COc1ccc(S/C(N)=C(C#N)/C(C#N)=C(\N)Sc2ccc(OC)c(OC)c2)cc1OC | – | – | 0% | –
N#Cc1c(N)[nH]c(Sc2ccc3ccccc3c2)c1C#N | 25.1 µM | 1.4 µM | – | –
Cc1ccccc1S/C(N)=C(C#N)/C(C#N)=C(\N)Sc1ccccc1C | 13.3 µM | 2 µM | – | –
N#CC(=C(/N)Sc1cccc(-c2ccccc2)c1)/C(C#N)=C(\N)Sc1cccc(-c2ccccc2)c1 | – | – | 54.6% | –
N#CC(=C(/N)Sc1cccc(Cl)c1)/C(C#N)=C(\N)Sc1cccc(Cl)c1 | 18.4 µM | 1.9 µM | – | –
CC(=O)Nc1ccc(S/C(N)=C(C#N)/C(C#N)=C(\N)Sc2ccc(NC(C)=O)cc2)cc1 | – | – | 0% | –
CN1/C(=C(C#N)\C(C#N)=C2\Sc3ccccc3N2C)Sc2ccccc21 | – | – | – | Not Active
N#CC(=C(/N)Sc1c(F)c(F)c(F)c(F)c1F)/C(C#N)=C(\N)Sc1c(F)c(F)c(F)c(F)c1F | – | – | 17% | –
N#CC(=C(/N)Sc1ccc(O)cc1)/C(C#N)=C(\N)Sc1ccc(O)cc1 | – | 0.4 µM | – | –
CCc1ccccc1S/C(N)=C(C#N)/C(C#N)=C(\N)Sc1ccccc1CC | – | – | 18% | –
N#CC(=C(/N)Sc1ccccc1Br)/C(C#N)=C(\N)Sc1ccccc1Br | 7.9 µM | 1.1 µM | – | –

Reference: ChEMBL document CHEMBL1130626, “MEK inhibitors: the chemistry and biological activity of U0126, its analogs, and cyclization products” (Bioorg Med Chem Lett, 1998)
